{"source": "patent US9730909B2", "about": "“Methods for targeting cancer stem cells” (BOSTON BIOMEDICAL, INC, priority 2010, dated 2017)", "key": {"[1]": {"tested_on": "FaDu human head and neck cancer", "experiment": "Subcutaneous FaDu human head and neck cancer xenograft in immunosuppressed mice", "type": "in vivo", "description": "In the studies shown in FIG. 8, immunosuppressed mice with established subcutaneous FaDu human head and neck cancer were given indicated amount of hand grounded Compound 1 with Crystal Form 1, or vehicle control orally (po). Compound 1 was formulated in […]™. All regimens were administered daily (qd). Tumor sizes were evaluated periodically during treatment.\nIn the study shown in FIG. 9, immunosuppressed mice with established subcutaneous FaDu human head and neck cancer were given 100 mg/kg of micronized Compound 1 produced with the synthetic process described in FIGS. 5A and 5B (first crop), or vehicle control orally (po). Compound 1 was formulated in […]™. All regimens were administered daily (qd). Tumor sizes were evaluated periodically during treatment. Form 2 has been successfully manufactured by a current good manufacturing practice (cGMP) process and received approval from the FDA and Health Canada to be used in clinical trials.\nForm 3 can only be generated from Form 1 using a specially designed slurry process described herein. […] In the study shown in FIG. 10, immunosuppressed mice with established subcutaneous FaDu human head and neck cancer were given 200 mg/kg of Compound 1 with hand grounded Crystal Form 1 or Form 3, or vehicle control orally (po). Compound 1 was formulated in gelucire. All regimens were administered daily (qd). Tumor sizes were evaluated periodically during treatment. This polymorph has been successfully manufactured by a cGMP process and received approval from FDA and Health Canada to be used in clinical trials.\nThe anti-tumor activity of particles of Compound 1 with different particle size ranges is illustrated in FIG. 15, and the pharmacokinetic data for particles of Compound 1 with different particle size ranges is illustrated in FIGS. 16-18. In the study shown in FIG. 15, immunosuppressed mice with established subcutaneous FaDu human head and neck cancer were given indicated amount of Compound 1 with indicated particle size, or vehicle control orally (po). All regimens were administered daily (qd). Tumor size was evaluated periodically.\nIn an experiment, a formulation of Compound 1 particles sieved to 160 micron was tested in the model of immunosuppressed mice with established subcutaneous xenograft FaDu human head and neck cancer. The pharmaceutical composition was formulated as 80 mg/ml in 9% Gelucire, 20% Vitamin E TPGS (Table 3). […] All regimens were administered daily (qd).\nIn an experiment, Compound 1 crystals were milled to a median particle size of about 20 micron. […] All regimens were administered daily (qd).\nFaDu human head and neck cancer cells were inoculated subcutaneously into female athymic nude mice (6×10^6 cells/mouse) and allowed to form palpable tumors. When the tumors reached approximately 100 mm^3, the animals were treated orally (po) with Compound 1 at 100 mg/kg or vehicle control daily. Compound 1 was formulated at 10 mg/ml in 20% gelucire. Tumors and bodyweights were measured throughout treatment (FIG. 15).\n(§1) Daily examinations into the health status of each animal were also conducted. Body weights were checked every three days. Food and water was supplied daily according to the animal husbandry procedures of the facility. Treatment producing >20% lethality and or >20% net body weight loss were considered toxic. Results are expressed as mean tumor volume (mm^3)±SE. P Values <0.05 are considered to be statistically relevant.\nMale or female athymic nude mice 4-5 weeks (Charles River Laboratories, Wilmington, Mass.), were acclimated to the animal housing facility for at least 1 week before study initiation. […]"}, "[2]": {"experiment": "Phase I clinical trial: plasma pharmacokinetics", "type": "in vivo, human", "protocol": "A cycle consists of twice-daily oral administration of the compound for 4 weeks. Cycles were repeated every 4 weeks (28 days) until progression of disease, unacceptable toxicity, or another discontinuation criterion is met. The dose escalation trial was conducted as open label and multicenter trial. A modified Simon accelerated titration scheme was used for dose escalation.\nThe primary objective of the trial was to determine the safety, tolerability, and recommended phase II dose (RP2D). The secondary objectives of the trial were to determine the pharmacokinetic profile of the compound, pharmacodynamics of the compound, and preliminary antitumor activity of the compound."}, "[3]": {"experiment": "Toxicity (body weight, deaths) in xenograft-bearing immunosuppressed mice", "type": "in vivo", "settings": "for mice died during the treatment: about 90% pure", "description": "All regimens were administered daily (qd). Body weights were evaluated periodically during treatment. Each point represents the mean±SEM of eight tumors. […] All regimens were administered daily (qd). Body weights were evaluated periodically during treatment. Each point represents the mean±SEM of eight tumors.\nas §1"}, "advanced cancers": {"tested_on": "advanced cancers", "experiment": "Progression free survival of patients", "type": "in vivo, human", "excerpt": "FIG. 22 is a graph that illustrates the comparison of progression free survival of colorectal cancer patients treated with Compound 1. The progression free survival (PFS) of evaluable patients with colorectal cancer treated with Compound 1 was compared against historical PFS data for best supportive care in patients with colorectal cancer.\nFIG. 23 is a graph that illustrates the comparison of progression free survival (PFS) versus pharmacokinetic exposure. The PFS of evaluable patients receiving Compound 1 was compared against Compound 1 exposure above or below 1.6 uM for at least 4 hours."}, "[4]": {"tested_on": "cancer cells and normal cells", "settings": "literature reports (Hirai 1999; Takano 2009); cited from earlier work"}, "advanced solid tumors": {"tested_on": "advanced solid tumors", "experiment": "Phase I clinical trial: tumor response (RECIST 1.1)", "type": "in vivo, human", "excerpt": "Of the 42 patients dosed, 24 were evaluable for tumor response as of Feb. 7, 2011; 16 (16/24 evaluable patients) achieved stable disease (8 to 75+ weeks)."}, "[5]": {"experiment": "Phase I clinical trial: safety and tolerability", "type": "in vivo, human", "excerpt": "Grade 3 or greater events include: fatigue and diarrhea."}, "[6]": {"experiment": "Pharmacokinetics in mice of 2, 20, 150 micron particle size formulations", "type": "in vivo", "settings": "particle size 125-150 micron vs 2 and 20 micron, 100 mg/kg oral, 20% Gelucire 44/14, 1% Tween 80", "description": "In an experiment, micronized Compound 1 prepared in step 6 of Example 2 with a mean particle size of 2 micron, 20 microns, 150 microns were formulated as suspensions in 20% Gelucire 44/14 and 1% Tween 80 and administered orally to mice at 100 mg/kg. Each time point represents the average of 3 mice (FIG. 16)."}, "[7]": {"tested_on": "cancer cells and normal cells", "experiment": "Exposure concentration/time and selective killing of cancer versus normal cells", "type": "cell-based", "description": "The studies described herein discovered counter-intuitively that cancer cells and cancer stem cells requires much shorter exposure than normal cells to be killed by Compound 1. Normal cells can tolerate up to 24 hours of exposure to Compound 1. Furthermore, the studies here discovered that normal cells can recover after a short period of no-drug exposure, while cancer cells cannot recover once they are exposed to a certain concentration of the Compound 1 for at least 2 hours. Based on these studies, a special pharmacokinetic exposure [termed selective pharmacokinetic profile (SPP), or preferred pharmacokinetic profile (PPP), which is used interchangeably in this publication] was designed for Compound 1 using the data shown below in Table 14 for achieving selective antitumor activity in patients (FIG. 24).\nThe selective activity of Compound 1 in killing cancer cells and sparing normal cells is represented by the data in Table 14 and illustrated in FIG. 24."}, "[8]": {"experiment": "Concentration in patient urine", "type": "in vivo, human", "settings": "patient 0001, 20 mg daily administration"}, "[9]": {"settings": "particle size less than 5 micron"}, "[10]": {"settings": "crystal form used in clinical trials"}}, "note": "Several values for one entry are separate records, joined by “and”; a condition that tells them apart may be missing. Identical values can stand only once. Entries after “also recorded” stand apart in the source; their conditions may differ."}
{"smiles": "CC(=O)c1cc2c(o1)C(=O)c1ccccc1C2=O", "note": "[Compound 1, 2-acetylnaphtho[2,3-b]furan-4,9-dione]", "values": [{"measurement": "efficacy", "setting": "[1]; median particle size about 20 micron, 200 mg/kg oral daily", "result": "weak or moderate efficacy"}, {"measurement": "anti-tumor activity", "setting": "[1]; nanoparticles, D50 about 100 nanometers", "result": "reduction of anti-tumor activity"}, {"measurement": "efficacy", "setting": "[1]; particle size greater than 20 micron", "result": "no or weak efficacy"}, {"measurement": "anti-tumor activity", "setting": "[1]; [9]", "result": "potent anti-tumor activity"}, {"measurement": "toxicity", "setting": "[1]; [9]", "result": "no observed toxicity"}, {"measurement": "time plasma concentration was sustained", "setting": "[2]; 320 mg/day dose level, at a concentration of at least 1.5 μM", "result": "over 8 hours"}, {"measurement": "clearance from the blood", "setting": "[2]; human, in vivo, 20 mg", "result": "rapidly cleared from the blood"}, {"measurement": "AUC0-24", "setting": "[2]; human, in vivo, 320 mg", "result": 29.79, "unit": "µM·h"}, {"measurement": "AUC0-24", "setting": "[2]; human, in vivo, 800 mg", "result": 26.43, "unit": "µM·h"}, {"measurement": "AUC0-24", "setting": "[2]; human, in vivo, 1400 mg", "result": 28.38, "unit": "µM·h"}, {"measurement": "toxicity", "setting": "[3]; about 90% pure Compound 1, GELUCIRE, po, qd", "result": "Significant toxicity"}, {"measurement": "mice died during the treatment", "setting": "[3]; mice with FaDu human head and neck cancer (first experiment)", "result": 4}, {"measurement": "mice died during the treatment", "setting": "[3]; mice with MDA-231 human breast cancer (second experiment)", "result": 3}, {"measurement": "tolerability", "setting": "[3]; higher purity (about 95% or greater), mice with FaDu or MDA-231 xenografts, po, qd", "result": "well-tolerated and showed no signs of toxicity"}, {"measurement": "progression free survival", "setting": "advanced cancers; blood drug concentration above 1 uM, patients with diverse cancers", "result": "increase in progression free survival"}, {"measurement": "progression free survival (PFS)", "setting": "advanced cancers; patients with advanced colorectal cancer refractory to chemotherapy", "result": "Prolongation of progression free survival"}, {"measurement": "progression free survival", "setting": "advanced cancers; patients with exposure above 1.6 uM for at least 4 hours", "result": "improvement in progression free survival"}, {"measurement": "toxicity to cancer cells versus normal cells", "setting": "[4]", "result": "equally toxic to cancer cells and normal cells"}, {"measurement": "antitumor activity in a colon cancer lesion in kidney", "setting": "advanced solid tumors; 20 mg QD", "result": "signs of potent antitumor activity"}, {"measurement": "evaluable patients showing no metastatic tumors", "setting": "advanced solid tumors; 24 evaluable patients with advanced refractory cancers", "result": "over 80%"}, {"measurement": "response of colon cancer metastatic lesion to kidney", "setting": "advanced solid tumors; patient 0001, 20 mg daily", "result": "complete regression"}, {"measurement": "Best Response, remark (CA 125)", "setting": "advanced solid tumors; patient 0014, total daily dose 400 mg bid, Ovarian cancer", "result": "CA 125 normalization"}, {"measurement": "Best Response, remark (CEA)", "setting": "advanced solid tumors; patient 0015, total daily dose 400 mg bid, Colon adenocarcinoma", "result": "CEA ? >30-50%"}, {"measurement": "evaluable patients showing SD/MR by RECIST 1.1", "setting": "advanced solid tumors; tumors refractory to chemotherapies", "result": "16/24 and 16 out of 24"}, {"measurement": "maximum tolerated dose (MTD)", "setting": "[5]; dose escalated from 20 mg to 2000 mg/day", "result": "not reached; also recorded: neither MTD nor RP2D has been reached"}, {"measurement": "Urine Color Change, # of Events", "setting": "[5]; human, in vivo", "result": 2}, {"measurement": "Urine Color Change, % of Total", "setting": "[5]; human, in vivo", "result": 2.5, "unit": "%"}, {"measurement": "Urine Color Change, # of Events", "setting": "[5]; human, in vivo, 4 weeks", "result": 0}, {"measurement": "plasma exposure", "setting": "[6]", "result": "lower level of exposure"}, {"measurement": "exposure time tolerated by normal cells", "setting": "[7]", "result": "up to 24 hours"}, {"measurement": "selectivity of killing", "setting": "[7]; about or above 0.2 and 30 μM for about 4 hours up to about 24 hours", "result": "selective killing of cancer cells and sparing of normal cells"}, {"measurement": "concentration of the compound in urine", "setting": "[8]", "result": "high concentration"}]}
{"smiles": "CC(=O)c1cc2c(o1)C(=O)c1ccccc1C2=O", "note": "[Crystal Form 1, 2-acetyl-4H, 9H-naphtho[2,3-b]furan-4,9-dione]", "values": [{"measurement": "anti-tumor activity", "setting": "[1]; hand grounded Crystal Form 1 in GELUCIRE, po, qd", "result": "limited anti-tumor activity; also recorded: low anti-tumor activity"}]}
{"smiles": "CC(=O)c1cc2c(o1)C(=O)c1ccccc1C2=O", "note": "[Crystal Form 2, 2-acetyl-4H, 9H-naphtho[2,3-b]furan-4,9-dione]", "values": [{"measurement": "anti-tumor activity", "setting": "[1]; 100 mg/kg micronized (first crop, process of FIGS. 5A-5B) in GELUCIRE, po, qd", "result": "potent anti-tumor activity"}, {"measurement": "pharmacokinetics in cancer patients", "setting": "[2]; [10]", "result": "desirable pharmacokinetics"}, {"measurement": "anti-tumor activity in cancer patients", "setting": "advanced solid tumors; [10]", "result": "strong signs of anti-tumor activity"}]}
{"smiles": "CC(=O)c1cc2c(o1)C(=O)c1ccccc1C2=O", "note": "[Crystal Form 3, 2-acetyl-4H, 9H-naphtho[2,3-b]furan-4,9-dione]", "values": [{"measurement": "antitumor activity", "setting": "[1]; 200 mg/kg hand grounded, in gelucire, po, qd", "result": "potent antitumor activities"}]}
